# Laboratory results: paper PMC8353826, “Celastrol exerts a neuroprotective effect by directly binding to HMGB1 protein in cerebral ischemia–reperfusion” (Journal of Neuroinflammation, 2021)
# Tests used:
# HMGB1 A box [1] = biological target: T1, HMGB1 A box (Homo sapiens, UniProt P09429); assay: gel-based competition with IAA-yne labelling, click TAMRA fluorescence; type: binding; details: covalent; blocks IAA-yne labelling of Cys; PBS
# T1 construct: A box domain, residues 1-89, N-terminal 6-His tag, modified pET-24d, E. coli BL21
# T1 sequence (P09429 1-89): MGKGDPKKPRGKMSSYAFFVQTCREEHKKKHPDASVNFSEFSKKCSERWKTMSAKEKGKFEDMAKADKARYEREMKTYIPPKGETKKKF
# [2] = biological target: T2, HMGB1 (primary rat cortical neurons) (Rattus norvegicus, UniProt P63159); assay: CETSA in neuron lysate, Western blot; competition with cel-p pull-down; type: biochemical; details: 20 μM cel, 1 h, 37-82 °C (CETSA); 8 × cel in pull-down
# T2 construct: endogenous full-length protein in living primary cortical neurons or their lysate
# T2 sequence (P63159 2-215): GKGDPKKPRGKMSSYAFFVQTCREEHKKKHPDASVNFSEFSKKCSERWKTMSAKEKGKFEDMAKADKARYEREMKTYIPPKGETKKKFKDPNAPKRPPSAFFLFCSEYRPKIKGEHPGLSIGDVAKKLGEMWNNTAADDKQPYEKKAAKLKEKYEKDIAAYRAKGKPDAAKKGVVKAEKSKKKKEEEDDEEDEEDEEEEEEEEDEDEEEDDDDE
# [3] = biological target: T3, recombinant human HMGB1 protein (full-length) (Homo sapiens, UniProt P09429); assay: gel-based competition with IAA-yne labelling, click TAMRA fluorescence; type: binding; details: covalent; Cys 106 of disulfide form or Cys 23, 45, 106 of fully reduced form, also other sites; PBS
# T3 construct: full-length recombinant protein, commercial (Abcam); disulfide form or DTT-reduced
# T3 sequence (P09429 1-215): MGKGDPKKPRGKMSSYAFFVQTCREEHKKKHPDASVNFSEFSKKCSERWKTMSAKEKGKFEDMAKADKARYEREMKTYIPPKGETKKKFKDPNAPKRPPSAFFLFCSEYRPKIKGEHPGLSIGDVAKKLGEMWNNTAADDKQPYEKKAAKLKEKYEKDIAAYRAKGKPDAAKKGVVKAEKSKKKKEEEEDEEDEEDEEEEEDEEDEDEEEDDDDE
# HMGB1 B box [4] = biological target: T4, HMGB1 B box (Homo sapiens, UniProt P09429); assay: as above; type: binding; details: covalent; blocks IAA-yne labelling of Cys; PBS
# T4 construct: B box domain, residues 90-175, N-terminal 6-His tag, modified pET-24d, E. coli BL21
# T4 sequence (P09429 90-175): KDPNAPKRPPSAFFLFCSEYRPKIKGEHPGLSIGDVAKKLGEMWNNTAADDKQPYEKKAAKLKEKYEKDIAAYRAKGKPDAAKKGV
# HMGB1 A box [5] = biological target: T1, HMGB1 A box; assay: in-gel fluorescence labelling by probe, click TAMRA azide; type: binding; details: labelled compound; labelling in presence of IAA; PBS
# [6] = biological target: T2, HMGB1 (primary rat cortical neurons); assay: probe pull-down, TMT LC-MS/MS and Western blot; type: cell-based; details: labelled compound; 4 μM cel-p, 4 h, living neurons, with or without OGD
# HMGB1 B box [7] = biological target: T4, HMGB1 B box; assay: in-gel fluorescence labelling by probe, click TAMRA azide; type: binding; details: labelled compound; labelling in presence of IAA; PBS
SMILES,"gel-based competition with IAA-yne labelling, click TAMRA fluorescence (HMGB1 A box [1])","CETSA in neuron lysate, Western blot; competition with cel-p pull-down [2]","gel-based competition with IAA-yne labelling, click TAMRA fluorescence [3]","gel-based competition with IAA-yne labelling, click TAMRA fluorescence (HMGB1 B box [4])","in-gel fluorescence labelling by probe, click TAMRA azide (HMGB1 A box [5])","probe pull-down, TMT LC-MS/MS and Western blot [6]","in-gel fluorescence labelling by probe, click TAMRA azide (HMGB1 B box [7])"
"CC1=C(O)C(=O)C=C2C1=CC=C1[C@@]2(C)CC[C@@]2(C)[C@@H]3C[C@](C)(C(=O)O)CC[C@]3(C)CC[C@]12C [cel, celastrol]",Cel also almost completely blocked the binding of IAA-yne to the Cys group,The CETSA results also proved the direct binding of cel and HMGB1,Cel almost completely competed for the binding of IAA-yne to HMGB1 or DTT reduced HMGB1,Cel also almost completely blocked the binding of IAA-yne to the Cys group,,,
C#CCNC(=O)[C@]1(C)CC[C@]2(C)CC[C@]3(C)C4=CC=C5C(=CC(=O)C(O)=C5C)[C@]4(C)CC[C@@]3(C)[C@@H]2C1 [cel-p],,,,,The binding of cel-p to the A and B boxes could not be blocked by IAA,could completely compete the binding of cel-p to HMGB1,The binding of cel-p to the A and B boxes could not be blocked by IAA
